Assay: xn = mol fraction of the nth substance listed

c1cnccn1 [pyrazine] + O=C=O
Fluid (supercritical or subcritical phases), Linear displacement technique
Conditions | mass density [kg/m3]
294.25 K, 5340 kPa, x1 = 0.308 | 1054
294.25 K, 9480 kPa, x1 = 0.308 | 1070
294.25 K, 12170 kPa, x1 = 0.308 | 1078
295.55 K, 6450 kPa, x1 = 0.019 | 854
295.55 K, 7000 kPa, x1 = 0.019 | 877
295.55 K, 9070 kPa, x1 = 0.019 | 915
295.65 K, 5520 kPa, x1 = 0.146 | 887
295.65 K, 5970 kPa, x1 = 0.074 | 926
295.65 K, 6100 kPa, x1 = 0.074 | 929
295.65 K, 6310 kPa, x1 = 0.074 | 941
295.65 K, 6380 kPa, x1 = 0.116 | 815
295.65 K, 6520 kPa, x1 = 0.146 | 898
295.65 K, 8210 kPa, x1 = 0.116 | 833
295.65 K, 12790 kPa, x1 = 0.146 | 926
296.25 K, 6140 kPa, x1 = 0.09 | 873
296.25 K, 9830 kPa, x1 = 0.09 | 923
298.25 K, 6590 kPa, x1 = 0.015 | 863
298.25 K, 7520 kPa, x1 = 0.015 | 892
298.25 K, 8790 kPa, x1 = 0.015 | 918
299.45 K, 7760 kPa, x1 = 0.224 | 921
300.75 K, 6520 kPa, x1 = 0.177 | 894
300.75 K, 7070 kPa, x1 = 0.177 | 898
300.75 K, 10790 kPa, x1 = 0.177 | 917
303.65 K, 7070 kPa, x1 = 0.074 | 903
303.65 K, 8720 kPa, x1 = 0.074 | 924
303.75 K, 7480 kPa, x1 = 0.015 | 828
303.75 K, 9410 kPa, x1 = 0.015 | 898
303.75 K, 10240 kPa, x1 = 0.015 | 917
303.75 K, 12450 kPa, x1 = 0.015 | 956
304.15 K, 7690 kPa, x1 = 0.019 | 791
304.15 K, 8380 kPa, x1 = 0.019 | 826
304.15 K, 9210 kPa, x1 = 0.019 | 849
304.15 K, 10520 kPa, x1 = 0.019 | 876
304.15 K, 11900 kPa, x1 = 0.019 | 898
304.25 K, 7340 kPa, x1 = 0.116 | 798
304.25 K, 7550 kPa, x1 = 0.116 | 801
304.25 K, 9550 kPa, x1 = 0.116 | 816
304.95 K, 7280 kPa, x1 = 0.308 | 1036
304.95 K, 9690 kPa, x1 = 0.308 | 1041
304.95 K, 13620 kPa, x1 = 0.308 | 1052
305.75 K, 6930 kPa, x1 = 0.146 | 839
305.75 K, 7280 kPa, x1 = 0.146 | 863
305.75 K, 11690 kPa, x1 = 0.146 | 886
305.85 K, 7340 kPa, x1 = 0.09 | 858
305.85 K, 10170 kPa, x1 = 0.09 | 884
306.35 K, 6520 kPa, x1 = 0.397 | 1049
306.35 K, 9690 kPa, x1 = 0.397 | 1061
306.35 K, 13690 kPa, x1 = 0.397 | 1070
308.25 K, 7550 kPa, x1 = 0.074 | 882
308.25 K, 9480 kPa, x1 = 0.074 | 906
308.65 K, 6030 kPa, x1 = 0.495 | 999
308.65 K, 7000 kPa, x1 = 0.495 | 1001
308.65 K, 9240 kPa, x1 = 0.495 | 1008
309.45 K, 7070 kPa, x1 = 0.177 | 872
309.45 K, 7620 kPa, x1 = 0.177 | 874
309.45 K, 9760 kPa, x1 = 0.177 | 884
312.05 K, 9480 kPa, x1 = 0.224 | 899
312.05 K, 9760 kPa, x1 = 0.015 | 778
312.05 K, 9930 kPa, x1 = 0.015 | 787
312.05 K, 10410 kPa, x1 = 0.015 | 812
312.05 K, 11100 kPa, x1 = 0.015 | 835
312.05 K, 16790 kPa, x1 = 0.224 | 919
312.75 K, 7760 kPa, x1 = 0.308 | 1023
312.75 K, 11690 kPa, x1 = 0.308 | 1033
312.75 K, 14830 kPa, x1 = 0.308 | 1043
313.55 K, 8450 kPa, x1 = 0.116 | 773
313.55 K, 8790 kPa, x1 = 0.116 | 778
313.55 K, 10860 kPa, x1 = 0.116 | 791
313.65 K, 9030 kPa, x1 = 0.019 | 687
313.65 K, 9140 kPa, x1 = 0.019 | 712
313.65 K, 9830 kPa, x1 = 0.019 | 761
313.65 K, 10450 kPa, x1 = 0.019 | 792
313.65 K, 10860 kPa, x1 = 0.019 | 809
313.65 K, 12520 kPa, x1 = 0.019 | 850
314.85 K, 8240 kPa, x1 = 0.146 | 833
314.85 K, 8860 kPa, x1 = 0.146 | 839
314.85 K, 14240 kPa, x1 = 0.146 | 869
314.95 K, 7830 kPa, x1 = 0.397 | 1040
314.95 K, 11280 kPa, x1 = 0.397 | 1048
314.95 K, 15140 kPa, x1 = 0.397 | 1060
315.85 K, 8660 kPa, x1 = 0.09 | 813
318.95 K, 9210 kPa, x1 = 0.015 | 512
318.95 K, 9280 kPa, x1 = 0.015 | 527
318.95 K, 9480 kPa, x1 = 0.015 | 571
320.15 K, 9140 kPa, x1 = 0.09 | 806
320.15 K, 10790 kPa, x1 = 0.09 | 830
320.95 K, 9660 kPa, x1 = 0.224 | 877
320.95 K, 13000 kPa, x1 = 0.224 | 889
321.55 K, 9280 kPa, x1 = 0.177 | 839
321.55 K, 10520 kPa, x1 = 0.177 | 847
321.55 K, 12520 kPa, x1 = 0.177 | 857

linear displacement
Conditions | mass density [kg/m3]
294.25 K, Liquid, x1 = 0.308 | 1048
295.55 K, Liquid, x1 = 0.019 | 842
295.65 K, Liquid, x1 = 0.074 | 922
295.65 K, Liquid, x1 = 0.116 | 809
295.65 K, Liquid, x1 = 0.146 | 887
296.25 K, Liquid, x1 = 0.09 | 864
298.25 K, Liquid, x1 = 0.015 | 857
299.45 K, Liquid, x1 = 0.224 | 910
300.75 K, Liquid, x1 = 0.177 | 889
303.65 K, Liquid, x1 = 0.074 | 900
303.75 K, Liquid, x1 = 0.015 | 802
304.15 K, Liquid, x1 = 0.019 | 776
304.25 K, Liquid, x1 = 0.116 | 795
304.95 K, Liquid, x1 = 0.308 | 1028
305.75 K, Liquid, x1 = 0.146 | 860
305.85 K, Liquid, x1 = 0.09 | 854
306.35 K, Liquid, x1 = 0.397 | 1042
308.25 K, Liquid, x1 = 0.074 | 878
308.65 K, Liquid, x1 = 0.495 | 992
309.45 K, Liquid, x1 = 0.177 | 870
312.05 K, Liquid, x1 = 0.015 | 656
312.05 K, Liquid, x1 = 0.224 | 887
312.75 K, Liquid, x1 = 0.308 | 1019
313.55 K, Liquid, x1 = 0.116 | 771
313.65 K, Liquid, x1 = 0.019 | 679
314.85 K, Liquid, x1 = 0.146 | 830
314.95 K, Liquid, x1 = 0.397 | 1037
315.85 K, Liquid, x1 = 0.09 | 810
318.95 K, Gas, x1 = 0.015 | 452
320.15 K, Liquid, x1 = 0.09 | 799
320.95 K, Liquid, x1 = 0.224 | 870
